Reference: paper PMC8972196, “A Set of Experimentally Validated Decoys for the Human CC Chemokine Receptor 7 (CCR7) Obtained by Virtual Screening” (Frontiers in Pharmacology, 2022)
Like-named read-outs stand apart in the source and are kept apart here.

What was measured:
[1] = target: T1, human CXCR2 (Homo sapiens, UniProt P25025); assay: CXCL8-induced calcium mobilization assay, U87.CD4 cells expressing CXCR2; type: cell-based
T1 construct: expressed in transfected cells
T1 sequence (P25025 1-360): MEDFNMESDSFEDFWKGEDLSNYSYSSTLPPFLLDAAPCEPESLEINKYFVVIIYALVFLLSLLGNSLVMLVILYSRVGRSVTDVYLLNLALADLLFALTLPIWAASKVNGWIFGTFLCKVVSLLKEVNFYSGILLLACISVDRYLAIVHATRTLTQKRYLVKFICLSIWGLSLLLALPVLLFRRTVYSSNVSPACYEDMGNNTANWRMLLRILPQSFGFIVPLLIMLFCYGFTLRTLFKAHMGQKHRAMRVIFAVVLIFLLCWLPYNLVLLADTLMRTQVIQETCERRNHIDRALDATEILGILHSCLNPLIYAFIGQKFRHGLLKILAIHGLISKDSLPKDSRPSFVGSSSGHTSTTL
Protocol: (§1) U87.CD4 cells that stably express either human CCR7, CXCR2, CCR5 or CXCR4 were seeded (20,000 cells/well) in gelatin-coated black-walled polystyrene 96-well plates with clear bottom and incubated overnight at 37°C and 5% CO2. […] Culture medium was removed, and cells were incubated for 45 min at room temperature in the dark. […] Exactly the same protocol was used to record calcium responses in Chinese hamster ovary (CHO)-K1 cells, upon stimulation with adenosine triphosphate (ATP, purchased from Sigma).

[2] = target: T2, human CXCR4 (Homo sapiens, UniProt P61073); assay: CXCL12-induced calcium mobilization assay, U87.CD4 cells expressing CXCR4; type: cell-based; settings: for effect on CXCR4 mediated calcium response: result in words
T2 construct: expressed in transfected cells
T2 sequence (P61073 whole entry): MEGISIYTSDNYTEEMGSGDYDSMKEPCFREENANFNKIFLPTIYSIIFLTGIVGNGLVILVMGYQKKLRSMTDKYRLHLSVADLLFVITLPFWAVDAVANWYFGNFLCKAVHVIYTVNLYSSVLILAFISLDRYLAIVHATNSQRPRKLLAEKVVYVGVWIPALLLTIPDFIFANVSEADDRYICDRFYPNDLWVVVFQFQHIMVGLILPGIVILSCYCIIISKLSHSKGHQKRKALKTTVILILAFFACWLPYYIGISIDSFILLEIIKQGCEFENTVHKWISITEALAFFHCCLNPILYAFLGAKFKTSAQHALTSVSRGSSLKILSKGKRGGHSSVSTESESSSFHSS
Protocol: U87.CD4 cells that stably express either human CCR7, CXCR2, CCR5 or CXCR4 were seeded (20,000 cells/well) in gelatin-coated black-walled polystyrene 96-well plates with clear bottom and incubated overnight at 37°C and 5% CO2. The next day, a fluorescent Ca^2+-sensitive dye solution (Fluo-2 AM) was prepared as described before ([Claes et al., 2018]). Culture medium was removed, and cells were incubated for 45 min at room temperature in the dark. Meanwhile, 96-well polypropylene plates containing 5-fold concentrated compound dilutions and 5-fold concentrated solution of chemokine ligands (CCL19, CXCL8, LD78-β, CXCL12, respectively; all purchased from PeproTech) were prepared for use with the FLIPR Tetra device (Molecular Devices) as described before ([Claes et al., 2018]). The antagonistic properties of the compounds were calculated based on their capacity to inhibit the Ca^2+ release induced by a fixed concentration of chemokine (i.e. 50 ng/mL final concentration for CCL19, CXCL8 and CXCL12 and 100 ng/ml for LD78-β), as described ([Claes et al., 2018]). Exactly the same protocol was used to record calcium responses in Chinese hamster ovary (CHO)-K1 cells, upon stimulation with adenosine triphosphate (ATP, purchased from Sigma).

[3] = target: T3, human CCR5 (Homo sapiens, UniProt P51681); assay: cell-based
T3 construct: expressed in transfected cells
T3 sequence (P51681 whole entry): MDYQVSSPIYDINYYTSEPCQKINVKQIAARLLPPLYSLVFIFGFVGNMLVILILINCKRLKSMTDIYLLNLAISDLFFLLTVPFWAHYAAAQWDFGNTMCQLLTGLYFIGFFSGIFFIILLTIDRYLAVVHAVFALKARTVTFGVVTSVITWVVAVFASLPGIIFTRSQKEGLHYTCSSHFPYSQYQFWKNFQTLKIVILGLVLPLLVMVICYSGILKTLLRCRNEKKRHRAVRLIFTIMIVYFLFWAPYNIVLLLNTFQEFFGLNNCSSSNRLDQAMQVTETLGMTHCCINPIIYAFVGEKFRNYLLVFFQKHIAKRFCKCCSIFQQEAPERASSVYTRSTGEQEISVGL
Protocol: as §1

[4] = target: T4, human CCR7 (Homo sapiens, UniProt P32248); assay: CCL19-induced calcium mobilization assay, U87.CD4 cells expressing CCR7; type: cell-based; settings: for CCR7 antagonism in calcium mobilization assay: CCL19-induced, result in words; for Decoy – 0 Active – 1: classification of tested compounds as decoy or active
T4 construct: expressed in transfected cells
T4 sequence (P32248 25-378): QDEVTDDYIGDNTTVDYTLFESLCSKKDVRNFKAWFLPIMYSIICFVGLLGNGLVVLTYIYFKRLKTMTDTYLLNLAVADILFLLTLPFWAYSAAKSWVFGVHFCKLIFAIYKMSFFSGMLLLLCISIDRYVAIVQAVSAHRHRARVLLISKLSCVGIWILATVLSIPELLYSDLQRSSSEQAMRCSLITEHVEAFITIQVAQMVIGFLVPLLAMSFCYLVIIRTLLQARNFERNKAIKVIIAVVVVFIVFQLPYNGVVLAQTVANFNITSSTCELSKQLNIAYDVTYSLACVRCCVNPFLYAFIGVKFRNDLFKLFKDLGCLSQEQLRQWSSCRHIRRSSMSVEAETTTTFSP
Method in brief: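 U87.CD4 cells stably expressing human CCR7, CXCR2 or CCR5 were seeded at 20,000 cells/well and incubated overnight at 37°C and 5% CO2. Cells were then incubated for 45 min at room temperature in the dark before calcium responses were recorded. CCR7 responses were induced with CCL19 and CXCR2 responses with CXCL8.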

[5] = target: T4, human CCR7; assay: CCR7 competition binding assay with CCL19^AF647 (flow cytometry, whole cells); settings: for inhibition of CCL19^AF647 binding / CCR7 affinity: result in words; for IC50: inhibition of CCL19^AF647 binding, Mean ± SD of four independent experiments
Protocol: In brief, U87.CD4.CCR7 cells were pre-incubated with compound (at different concentrations) in 150 μL assay buffer [Hank’s balanced salt solution (HBSS), 20 mM HEPES and 0.5% Fetal Calf Serum] for 15 min at room temperature (RT) in the dark. Afterwards, 50 μL of CCL19^AF647 was added (25 ng/mL final concentration) and samples were incubated for another 30 min at RT, protected from light. Then, cells were washed twice with assay buffer and fixed in 1% paraformaldehyde in Dulbecco’s phosphate-buffered saline (DPBS).
Samples were immediately analyzed by flow cytometry (FACS Canto II, BD). Data were analysed using Flowjo. The percentage inhibition of CCL19^AF647 binding was calculated according to formula {1—[(MFIX–MFINC)/(MFIPC–MFINC)]} x 100, where MFIX is the mean fluorescence intensity (MFI) of the compound-treated sample, MFINC the MFI of the negative control (i.e., autofluorescence of untreated and unlabeled cells) and MFIPC the MFI of the positive control (i.e., cells exposed to CCL19^AF647 only). […] For each experiment the stain index (SI) was calculated as the ratio of the separation between MFIPC and MFINC, divided by two times the standard deviation of MFINC.

[6] = tested on: ATP-induced Ca2+ release in CHO-K1 cells; assay: ATP-induced calcium response in CHO-K1 cells; settings: ATP 10 µM final concentration, Fluo-2
Text: Using CHO-K1 cells, exactly the same experimental set-up as for the chemokine receptor expressing U87 cells was applied, essentially including the same fluorescent calcium dye (Fluo-2) for cell loading.

[7] = tested on: CCR7; parameters: method as in Jaeger et al., 2019; settings: result in words; ref Jaeger et al., 2019; cited from earlier work
[8] = tested on: human or murine CCR7; parameters: method as in Hull-Ryde et al., 2018; settings: ref Hull-Ryde et al., 2018, cited from earlier work; for IC50: read-out: IC50, β-arrestin recruitment

Cc1ccc([C@@H](NC2=NS(=O)(=O)N=C2Nc2ccc(C)c(C(=O)N(C)C)c2O)C(C)(C)C)o1 [Cmp2105, reference compound]
inhibition of CXCR2 mediated calcium mobilization ([1]; result in words): inhibited
effect on CXCR4 mediated calcium response [2]: no (or only very limited) effect

CC[C@@H](Nc1c(Nc2cccc(C(=O)N(C)C)c2O)c(=O)c1=O)c1ccc(C)o1 [Navarixin]
effect on CCR5 mediated calcium response ([3]; result in words): no (or only very limited) effect
effect on CXCR4 mediated calcium response [2]: no (or only very limited) effect

FC(F)(F)c1cc(NC(=S)Nc2cc(C(F)(F)F)cc(C(F)(F)F)c2)cc(C(F)(F)F)c1 [C040, S=C(NC1=CC(C(F)(F)F)=CC(C(F)(F)F)=C1)NC2=CC(C(F)(F)F)=CC(C(F)(F)F)=C2]
IC50 [μM] block CCL19 induced calcium signaling ([4]; CCL19-induced calcium signaling): assay interference
IC50 ([4]; inhibition of CCL19 induced intracellular calcium flux, Mean ± SD of at least three independent experiments, read-out: Calcium assay IC50): 3 to 18 µM
activity in CCR7 competition binding assay ([5]; highest concentration tested (25 µM)): inactive
inhibition of CCL19^AF647 binding / CCR7 affinity [5]: completely devoid of activity
IC50 ([3]; Mean ± SD of at least three independent experiments, read-out: IC50, LD78-β-CCR5 Ca2+ response): 3 to 18 µM
inhibition of calcium response induced by ATP [6]: dose-dependently inhibit
IC50 ([1]; Mean ± SD of at least three independent experiments, read-out: IC50, CXCL8-CXCR2 Ca2+ response): 3 to 18 µM
IC50 ([2]; Mean ± SD of at least three independent experiments, read-out: IC50, CXCL12-CXCR4 Ca2+ response): 3 to 18 µM

CCOC(=O)N1CCC(Nc2c(NCCOC)c(=O)c2=O)CC1 [CS-3, Ethyl 4-((2-((2-methoxyethyl)amino)-3,4-dioxocyclobut-1-en-1-yl)amino)piperidine-1-carboxylate, reference compound]
IC50 [4]: > 50 µM
CCR7 antagonism in calcium mobilization assay [4]: inactive
Decoy – 0 Active – 1 [4]: 0
thermal stabilization of CCR7 [7]: hits in the thermofluor stability assay, albeit less potent than cmp2105 and navarixin
IC50 [5]: > 50 µM
inhibition of CCL19^AF647 binding / CCR7 affinity [5]: did not show any CCR7 affinity

COCCNc1c(Nc2cccc(C#N)c2)c(=O)c1=O [CS-2, 3-((2-((2-Methoxyethyl)amino)-3,4-dioxocyclobut-1-en-1-yl)amino)benzonitrile, reference compound]
IC50 [4]: > 50 µM
CCR7 antagonism in calcium mobilization assay [4]: inactive
Decoy – 0 Active – 1 [4]: 0
thermal stabilization of CCR7 [7]: hits in the thermofluor stability assay, albeit less potent than cmp2105 and navarixin
IC50 [5]: > 50 µM
inhibition of CCL19^AF647 binding / CCR7 affinity [5]: did not show any CCR7 affinity

CC(C)CCC[C@@H](C)[C@H]1CC[C@H]2[C@@H]3CC[C@H]4C[C@@H](CCC=C(c5cc(Cl)c(O)c(C(=O)O)c5)c5cc(Cl)c(O)c(C(=O)O)c5)CC[C@]4(C)[C@H]3CC[C@]12C [cosalane]
IC50 ([8]; CCL19 used as the natural CCR7 ligand): 0.2 µM
IC50 ([8]; CCL21 used as the agonist): 2.7 µM
activity against human versus murine CCR7 ([8]; result in words): nearly identical activity against the human and murine CCR7 orthologues

Maraviroc [reference compound]
CCR7 antagonism in calcium mobilization assay [4]: absence of activity
Decoy – 0 Active – 1 [4]: 0
thermal stabilization of CCR7 [7]: completely lacked the ability to thermally stabilize CCR7
